Experimental data from patent publication US11369569B2, “Target-specific delivery of therapeutic agents” (University of Virginia Patent Foundation, priority 2015, dated 2022).
Like-named read-outs stand apart in the source and are kept apart here.

Columns and labels:
[1] = tested on: cell types of interest in the infarct/border zone; test: Immunofluorescence of heart sections to identify cell types bound by phage clones; format: in vivo, mice; conditions: immunostaining
Protocol: Following ex vivo imaging of heart and liver, hearts from the mice under study were fixed in 4% paraformaldehyde for 1 h followed by equilibration in 30% sucrose for overnight at 4° C. The hearts were washed 3-4 times in DPBS (Dulbecco's phosphate-buffered saline) and placed in OCT medium (Sakura Finetek USA, Inc, Torrance, Calif.) and frozen by placing over liquid N2 vapors. The embedded tissue samples cut into 5-7 μm sections using a cryostat (Leica Microsystems Inc, Buffalo Grove, Ill.), for subsequent imaging with a fluorescence microscope fitted with appropriate filter sets (Olympus BX41). Cell types of interest in the infarct/border zone were identified by immunohistochemistry using the following antibodies: rat anti-mouse CD 31 at 1:250 dilution (endothelial marker)(BD Biosciences, San Jose, Calif.), rat anti-mouse myoglobin at 1:200 (cardiomyocyte marker) (Santa Cruz Biotechnology Inc, Dallas, Tex.), anti-alpha-smooth muscle actin (aSMA) conjugated with Alexa Fluor 488 at 1:200 (myofibroblast marker) (Sigma Chemical Co., St. Louis, Mo.), and rabbit anti-mouse c-Kit at 1:150 (cardiac progenitor cell marker) (Santa Cruz Biotechnology Inc, Dallas, Tex.). […] Appropriate secondary antibodies were employed as needed to identify the primary antibodies:goat anti-rat Alexa Fluor 488 (1:250) and goat anti-rabbit Alexa Fluor 488 (1:250) (Abcam, Cambridge, Mass.). Binding of I-1 and B-50 phage clones to cardiomyocytes and c-Kit+ cells was determined by flow cytometry. The RL-14 cardiomyocyte cell line (ATCC) was used to test the binding of fluorescently labeled I-1 phage (VivoTag 645) and myocardial infarct derived cardiac and bone marrow cells to test the binding of fluorescently labeled B-50 phage (VivoTag 680).

[2] = tested on: cell types of interest in the infarct/border zone; test: Immunofluorescence co-localization of peptide-conjugated liposomes with cell markers (JACoP, Mander's overlap); format: in vivo, mice; conditions: post-MI hearts
[3] = target: T1, EF fragment of Hornerin (Homo sapiens, UniProt Q86YZ3); test: Biolayer interferometry of B-40 binding to hornerin EF fragments; conditions: biotinylated B-40 peptide on streptavidin sensors
T1 construct: Different versions of the hornerin fragments containing EF domains were created; made in house
T1 sequence (Q86YZ3 1-81 limits assumed): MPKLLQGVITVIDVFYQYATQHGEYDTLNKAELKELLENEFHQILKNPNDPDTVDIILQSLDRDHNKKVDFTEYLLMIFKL
Protocol: FIG. 31 depicts biolayer interferometry to determine B-40 liposome binding to EF fragment of Hornerin. Using Fortebio octect system, B-40 liposomes binding to EF fragment was carried out. Streptavidin sensors were coated with Biotinylated EF fragments and their interaction with no peptide, I-1 and B-40 liposomes was tested.
FIG. 33 depicts biolayer interferometry to determine B-40 liposome binding to EF domains. Using Fortebio octect system, B-40 peptide binding to different EF fragments was carried out. Streptavidin sensors were coated with biotinylated B-40 peptide and its interaction with different fragments containing EF domains was carried out.

[4] = target: T2, CRIP-2 (Mus musculus, UniProt Q9DCT8); design: reference not given here; conditions: via binding to CRIP-2 in myocardium and endothelium; cited from earlier work
T2 construct: host or cells: myocardium and endothelium of the heart
T2 sequence (Q9DCT8 1-208): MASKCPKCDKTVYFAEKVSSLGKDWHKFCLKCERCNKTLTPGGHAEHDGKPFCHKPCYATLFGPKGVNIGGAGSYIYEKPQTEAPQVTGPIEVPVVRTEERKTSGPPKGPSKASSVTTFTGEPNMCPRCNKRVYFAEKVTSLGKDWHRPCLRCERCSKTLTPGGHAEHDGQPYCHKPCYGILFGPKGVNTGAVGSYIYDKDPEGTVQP

[5] = target: T3, VEGFR2 (Mus musculus, UniProt P35918); format: in vivo; conditions: for Vessel volume fraction (VVF) in infarct region: day 7 post-MI
T3 construct: from tissue; host or cells: endothelium of infarct/border zone in mouse heart (in vivo)
T3 sequence (P35918 20-1345): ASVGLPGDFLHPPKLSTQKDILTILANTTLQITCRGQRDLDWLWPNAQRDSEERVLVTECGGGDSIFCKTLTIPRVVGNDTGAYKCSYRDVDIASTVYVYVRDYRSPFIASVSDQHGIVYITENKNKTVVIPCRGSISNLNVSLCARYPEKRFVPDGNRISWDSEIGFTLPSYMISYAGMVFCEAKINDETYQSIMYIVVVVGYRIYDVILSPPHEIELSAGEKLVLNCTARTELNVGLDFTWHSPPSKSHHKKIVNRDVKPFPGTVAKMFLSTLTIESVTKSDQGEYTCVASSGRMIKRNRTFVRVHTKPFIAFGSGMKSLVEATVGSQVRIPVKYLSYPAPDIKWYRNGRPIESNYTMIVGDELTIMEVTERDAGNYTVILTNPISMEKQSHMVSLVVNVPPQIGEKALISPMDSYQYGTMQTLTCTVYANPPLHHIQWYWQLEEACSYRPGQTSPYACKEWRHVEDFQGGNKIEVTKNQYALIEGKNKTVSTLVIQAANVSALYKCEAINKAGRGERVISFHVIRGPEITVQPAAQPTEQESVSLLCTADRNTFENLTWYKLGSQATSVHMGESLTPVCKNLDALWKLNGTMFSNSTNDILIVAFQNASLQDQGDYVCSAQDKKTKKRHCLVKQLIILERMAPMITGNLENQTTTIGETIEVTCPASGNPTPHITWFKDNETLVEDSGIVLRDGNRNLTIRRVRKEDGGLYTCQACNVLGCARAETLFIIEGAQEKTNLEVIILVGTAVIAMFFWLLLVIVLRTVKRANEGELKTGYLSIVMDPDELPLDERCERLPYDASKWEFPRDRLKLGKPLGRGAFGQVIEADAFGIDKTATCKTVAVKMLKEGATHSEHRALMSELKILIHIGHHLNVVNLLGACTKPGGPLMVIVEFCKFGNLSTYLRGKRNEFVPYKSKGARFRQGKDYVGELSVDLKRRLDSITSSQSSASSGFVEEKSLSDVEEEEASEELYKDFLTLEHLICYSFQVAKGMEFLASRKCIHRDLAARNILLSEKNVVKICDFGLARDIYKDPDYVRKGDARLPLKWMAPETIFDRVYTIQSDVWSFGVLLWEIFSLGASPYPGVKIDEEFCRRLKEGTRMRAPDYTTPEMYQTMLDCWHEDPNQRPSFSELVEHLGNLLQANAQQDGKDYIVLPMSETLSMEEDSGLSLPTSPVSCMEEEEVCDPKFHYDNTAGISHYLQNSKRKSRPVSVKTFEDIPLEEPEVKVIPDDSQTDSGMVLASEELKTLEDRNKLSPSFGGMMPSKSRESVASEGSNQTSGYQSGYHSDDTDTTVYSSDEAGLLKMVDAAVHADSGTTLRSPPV

| Molecule | Cell type / component for which phage clone is specific [1] | Cell type for which peptide conjugated liposomes are specific [2] | also measured |
| --- | --- | --- | --- |
| TMQHDG (listed as Homo sapiens) [B-11] | extracellular matrix | – | – |
| SDTWSSR (listed as Homo sapiens) [B-7] | myofibroblasts | – | – |
| GLSQLQR (listed as Homo sapiens) [B-50] | c-Kit+ cells | c-Kit+ cells | – |
| SLLNRMP (listed as Homo sapiens) [B-40] | endothelial cells | endothelial cells | Binding to fragments containing EF domains [3]: possible binding partner |
| ATMSRAP (listed as Homo sapiens) [B-47] | endothelial cells | – | – |
| CRPPR [CRPPR-peptide] | – | – | Targeting to the heart [4]: 47 fold |
| Clc1ccc(Nc2nnc(Cc3ccncc3)c3ccccc23)cc1 [PTK787] | – | – | Percent effective in reducing neovessel formation ([5]; 20 mg/kg-d): 18%; Vessel volume fraction (VVF) in infarct region ([5]; 20 mg/kg-d): 0.052; Percent effective in reducing neovessel formation ([5]; 100 mg/kg-d): 65%; Vessel volume fraction (VVF) in infarct region ([5]; 100 mg/kg-d): 0.021; Vessel volume fraction (VVF) in infarct region ([5]; 100 mg/kg-d, listed as free PTK787): 0.022; Median (ED50, bootstrap) ([5]; 1000 nonparametric bootstrap data sets): 63 mg/kg-d; Estimated (ED50) ([5]; Imax model fit from vessel volume fraction): 63 mg/kg-d |
| NCP: intentionally off-target peptide (Panc-27) previously shown to be specific for pancreatic cancer cells (KTLLPTP) [reference compound] | – | non-specifically taken up by macrophages | – |
| TALPRLN (listed as Homo sapiens) [I-1] | cardiomyocytes | cardiomyocytes | – |
| AMRPPLN (listed as Homo sapiens) [B-42] | cardiomyocytes | – | – |
| SHSNARS (listed as Homo sapiens) [B-27] | c-Kit+ cells | – | – |
| ESRQVTP (listed as Homo sapiens) [B-43] | extracellular matrix | – | – |
| RPPALAP (listed as Homo sapiens) [B-29] | myofibroblasts | myofibroblasts | – |
